Test results taken from the NIST ThermoML archive (doi:10.1016/j.jct.2014.03.006).
± gives the expanded uncertainty stated by the source.

Assay: Boiling temperature at pressure P
Conditions: Liquid, Ebulliometric method (Recirculating still)

Boiling temperature at pressure P (24.5 kPa)	Boiling temperature at pressure P (34 kPa)	Boiling temperature at pressure P (43.5 kPa)	Boiling temperature at pressure P (53 kPa)	Boiling temperature at pressure P (62.5 kPa)	Boiling temperature at pressure P (72 kPa)	Boiling temperature at pressure P (81.5 kPa)	Boiling temperature at pressure P (91 kPa)	Boiling temperature at pressure P (101.3 kPa)	Boiling temperature at pressure P (110 kPa)	Boiling temperature at pressure P (119.5 kPa)	Boiling temperature at pressure P (129 kPa)	Boiling temperature at pressure P (138.5 kPa)	Boiling temperature at pressure P (148 kPa)	Boiling temperature at pressure P (157.5 kPa)	Boiling temperature at pressure P (167 kPa)	Boiling temperature at pressure P (176.5 kPa)	Boiling temperature at pressure P (186 kPa)	Boiling temperature at pressure P (190 kPa)	Structure (SMILES)
85.0 ± 0.3 °C	94.2 ± 0.3 °C	101.1 ± 0.3 °C	107 ± 0.3 °C	112.2 ± 0.3 °C	116.8 ± 0.3 °C	121 ± 0.3 °C	124.7 ± 0.3 °C	128.8 ± 0.3 °C	131.8 ± 0.3 °C	134.8 ± 0.3 °C	137.5 ± 0.3 °C	140.2 ± 0.3 °C	143 ± 0.3 °C	145.5 ± 0.3 °C	147.7 ± 0.3 °C	149.7 ± 0.3 °C	151.8 ± 0.3 °C	152.7 ± 0.3 °C	CCCCCC=O [hexanal]
100.4 ± 0.3 °C	110 ± 0.3 °C	117.2 ± 0.3 °C	123.8 ± 0.3 °C	129.5 ± 0.3 °C	134.6 ± 0.3 °C	139 ± 0.3 °C	143.0 ± 0.4 °C	147.6 ± 0.4 °C	150.7 ± 0.4 °C	154.0 ± 0.4 °C	157.2 ± 0.4 °C	160.0 ± 0.4 °C	162.8 ± 0.4 °C	165.2 ± 0.4 °C	168 ± 0.4 °C	170.2 ± 0.4 °C	172.2 ± 0.4 °C	173.1 ± 0.4 °C	CCC/C=C/C=O [(E)-2-hexenal]
89.0 ± 0.2 °C	98.1 ± 0.3 °C	105.2 ± 0.3 °C	111.1 ± 0.3 °C	116.4 ± 0.3 °C	121 ± 0.3 °C	124.8 ± 0.3 °C	128.7 ± 0.3 °C	132.5 ± 0.3 °C	135.6 ± 0.3 °C	138.6 ± 0.3 °C	141.4 ± 0.3 °C	144.2 ± 0.3 °C	147.0 ± 0.3 °C	149.4 ± 0.3 °C	151.7 ± 0.3 °C	154 ± 0.3 °C	156.0 ± 0.3 °C	156.8 ± 0.3 °C	CCOC(=O)C(C)CC (configuration not stated) [ethyl 2-methylbutanoate]
